{"source": "paper PMC2693460", "about": "(Cancer chemotherapy and pharmacology, 2009)", "target": "T1, ABCG2 (Homo sapiens, UniProt Q9UNQ0)", "T1 sequence (Q9UNQ0 1-655)": "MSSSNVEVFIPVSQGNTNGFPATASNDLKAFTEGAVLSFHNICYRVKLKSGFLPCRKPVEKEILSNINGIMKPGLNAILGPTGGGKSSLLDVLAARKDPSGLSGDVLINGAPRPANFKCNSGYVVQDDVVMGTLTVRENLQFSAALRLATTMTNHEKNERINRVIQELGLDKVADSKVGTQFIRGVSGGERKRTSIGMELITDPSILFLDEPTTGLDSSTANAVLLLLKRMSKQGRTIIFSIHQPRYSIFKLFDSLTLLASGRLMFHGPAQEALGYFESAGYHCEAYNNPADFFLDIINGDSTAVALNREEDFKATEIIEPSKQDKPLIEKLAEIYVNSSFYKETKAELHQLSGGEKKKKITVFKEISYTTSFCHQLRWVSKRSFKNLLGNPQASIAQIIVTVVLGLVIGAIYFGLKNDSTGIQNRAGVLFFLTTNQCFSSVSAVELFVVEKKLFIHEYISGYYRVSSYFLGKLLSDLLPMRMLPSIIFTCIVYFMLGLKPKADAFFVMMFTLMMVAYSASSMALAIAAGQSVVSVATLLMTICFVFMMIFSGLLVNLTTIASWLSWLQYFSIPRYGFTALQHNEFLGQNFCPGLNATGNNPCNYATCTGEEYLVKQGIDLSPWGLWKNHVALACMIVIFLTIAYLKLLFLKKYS", "type": "binding"}
{"compound": "CCN(CC)CCN1C(=O)c2c(c3c4cccc(Cl)c4n([C@@H]4O[C@H](CO)[C@@H](OC)[C@H](O)[C@H]4O)c3c3[nH]c4c(Cl)cccc4c23)C1=O", "note": "[becatecarin]", "values": [{"measurement": "IC50", "result": 2.1, "unit": "µM"}]}
